Experimental data as given in patent publication US6391878B2, “Guanidinyl heterocycle compounds useful as alpha-2 adrenoceptor agonists” (The Procter & Gamble Company, priority 1996, dated 2002).

How the values were obtained:
[1] = test system: patient with nasal congestion; test: Composition given to a patient with nasal congestion; format: in vivo, human
Experimental: One tablet is swallowed by a patient with nasal congestion.
One tablet is chewed and swallowed by a patient with nasal congestion.
One tablet is placed under the tongue of a patient with nasal congestion and allowed to dissolve.
One-tenth of a mL of the composition is sprayed from a pump actuator into each nostril of a patient with nasal congestion.
One-fifth of a mL of the composition is applied as drops from a dropper into each nostril of a patient with riasal congestion.
One 15 mL dose of the alcohol-free liquid medication is swallowed by a patient with nasal congestion.

[2] = test system: human subject suffering from septic or cardiogenic shock; test: Intravenous solution given to a human subject suffering from septic or cardiogenic shock; format: in vivo; settings: Example T parenteral solution 10 mg/ml carrier, approximately 2.0 ml intravenously
Experimental: The above ingredients are mixed, forming a solution. Approximately 2.0 ml of the solution is administered, intravenously, to a human subject suffering from septic or cardiogenic shock. The symptoms subside.

patient with migraine = test: Oral tablet given to a patient with migraine; format: in vivo, human; settings: Example K oral tablet, 4 mg per tablet, one tablet swallowed
Excerpt: One tablet is swallowed by a patient with migraine.

patient with asthma = test: Inhalation aerosol given to a patient with asthma; format: in vivo, human; settings: Example F inhalation aerosol 5.0 % w/v, two puffs from a metered-dose inhaler
Excerpt: Two-puffs of the aerosol composition is inhaled from a metered-dose inhaler by a patient with asthma.

[3] = test system: patient with nasal congestion and runny nose due to allergic rhinitis; test: Oral liquid given to a patient with nasal congestion and runny nose due to allergic rhinitis; format: in vivo, human; settings: Example H oral liquid, 15 mg per 15 mL dose, with chlorpheniramine maleate 4 mg, one dose swallowed
Experimental: One 15 mL dose of the liquid composition is swallowed by a patient with nasal congestion and runny nose due to allergic rhinitis.

patient with glaucoma = test: Topical ophthalmic composition given to a patient with glaucoma, intraocular pressure; format: in vivo, human; settings: Example G topical ophthalmic composition 0.10 % w/v, one-tenth of a mL into each eye
Experimental: One-tenth of a mL of the composition is administered directly into each eye of a patient with glaucoma.

Cc1c(NC(=N)N)ccc2nc[nH]c12 [Subject Compound 1, (4-Methylbenzimidazol-5-yl)guanidine]
nasal congestion ([1]; Example B chewable tablet, 15.0 mg per tablet, one tablet chewed and swallowed): substantially reduced
nasal congestion ([1]; Example E intranasal gel 0.10 % w/v, one-fifth of a mL as drops into each nostril): substantially reduced
symptoms of septic or cardiogenic shock [2]: subside
pain and aura of migraine (patient with migraine): substantially diminished

Cc1cc(NC(=N)N)c(C)c2[nH]cnc12 [Subject Compound 2, (4,7-Dimethylbenzimidazol-5-yl)guanidine]
asthmatic condition (patient with asthma): effectively relieved
nasal congestion ([1]; Example J alcohol-free oral liquid, 30 mg per 15 mL dose, one dose swallowed): substantially diminished

Cc1nc2c(C)c(NC(=N)N)ccc2[nH]1 [Subject Compound 3, (2,4-Dimethylbenzimidazol-5-yl)quanidine]
nasal congestion ([1]; Example D intranasal solution 0.20 % w/v, one-tenth of a mL sprayed into each nostril): substantially diminished

Cc1c(NC(=N)N)ccc2c1ncn2C [Subject Compound 4, (1,4-Dimethylbenzimidazol-5-yl)quanidine]
nasal congestion ([1]; Example A oral tablet, 20.0 mg per tablet, one tablet swallowed): substantially diminished
congestion and runny nose [3]: effectively reduced

N=C(N)Nc1ccc2nc[nH]c2c1Br [Subject Compound 5, (4-Bromobenzimidazol-5-yl)guanidine]
nasal congestion ([1]; Example C sublingual tablet, 2.00 mg per tablet, dissolved under the tongue): rapidly and substantially diminished
intraocular pressure (patient with glaucoma): substantially reduced
